{"source": "patent US20200008426A1", "about": "“ACTIVE COMPOUND COMBINATIONS” (BAYER AKTIENGESELLSCHAFT, priority 2017, published 2020)", "experiment": "LogP by HPLC on reversed phase columns (EEC directive 79/831 Annex V.A8)", "details": "Table 1, formula (I), LC-UV; for LogP [a]: acidic range, 0.1% formic acid in water and acetonitrile; for LogP [b]: neutral range, 0.001 molar ammonium acetate in water and acetonitrile", "experimental": "Measurement of LogP values was performed according to EEC directive 79/831 Annex V.A8 by HPLC (High Performance Liquid Chromatography) on reversed phase columns with the following methods:\nLambda-max-values were determined using UV-spectra from 200 nm to 400 nm and the peak values of the chromatographic signals.", "data": [{"compound": "CC(O)(Cn1cncn1)c1cnc(Oc2ccc(Cl)cc2)cc1Cl", "note": "(racemic) [I.08]", "values": [{"measurement": "LogP [a]", "result": "2.50^[a]"}]}, {"compound": "CC(O)(Cn1cncn1)c1ccc(Oc2ccc(Cl)cc2)nc1Cl", "note": "(racemic) [I.09]", "values": [{"measurement": "LogP [a]", "result": "2.66^[a]"}]}, {"compound": "OC(Cn1cncn1)c1cnc(Oc2ccc(S(F)(F)(F)(F)F)cc2)cc1C(F)(F)F", "note": "(racemic) [I.36]", "values": [{"measurement": "LogP [a]", "result": "3.15^[a]"}]}, {"compound": "OC(Cn1cncn1)c1cnc(Oc2ccc(C(F)(F)F)cc2)cc1C(F)(F)F", "note": "(racemic) [I.47]", "values": [{"measurement": "LogP [a]", "result": "2.84^[a]"}]}, {"compound": "CC(O)(Cn1cncn1)c1ccc(Oc2ccc(OC(F)(F)F)cc2)nc1C(F)(F)F", "note": "(racemic) [I.95]", "values": [{"measurement": "LogP [a]", "result": "2.98^[a]"}]}, {"compound": "CC(O)(Cn1cncn1)c1ccc(Oc2ccc(Cl)cc2)nc1C(F)(F)F", "note": "(racemic) [I.96]", "values": [{"measurement": "LogP [a]", "result": "2.68^[a]"}]}, {"compound": "OC(Cn1cncn1)(c1ccc(Oc2ccc(S(F)(F)(F)(F)F)cc2)nc1C(F)(F)F)C1CC1", "note": "(racemic) [I.97]", "values": [{"measurement": "LogP [a]", "result": "3.80^[a]"}]}, {"compound": "CCCCC(O)(Cn1cncn1)c1ccc(Oc2ccc(Cl)cc2)nc1C(F)(F)F", "note": "(racemic) [I.98]", "values": [{"measurement": "LogP [a]", "result": "3.87^[a]"}]}, {"compound": "CCCC(O)(Cn1cncn1)c1ccc(Oc2ccc(Cl)cc2)nc1C(F)(F)F", "note": "(racemic) [I.100]", "values": [{"measurement": "LogP [a]", "result": "3.55^[a]"}]}, {"compound": "CCC(O)(Cn1cncn1)c1ccc(Oc2ccc(Cl)cc2)nc1C(F)(F)F", "note": "(racemic) [I.103]", "values": [{"measurement": "LogP [a]", "result": "3.19^[a]"}]}, {"compound": "CC(O)(Cn1cncn1)c1cnc(Oc2ccc(Cl)cc2)cc1C(F)(F)F", "note": "(single isomer, unassigned) [I.45]", "values": [{"measurement": "LogP [a]", "result": "2.84^[a]"}]}, {"compound": "CC(O)(Cn1cncn1)c1cnc(Oc2ccc(Cl)cc2)cc1C(F)(F)F", "note": "(single isomer, unassigned) [I.46]", "values": [{"measurement": "LogP [a]", "result": "2.93^[a]"}]}, {"compound": "CC(O)(Cn1cncn1)c1ccc(Oc2ccc(Cl)cc2)nc1Cl", "note": "(single isomer, unassigned) [I.51]", "values": [{"measurement": "LogP [a]", "result": "2.62^[a]"}]}, {"compound": "CC(O)(Cn1cncn1)c1ccc(Oc2ccc(Cl)cc2)nc1Cl", "note": "(single isomer, unassigned) [I.52]", "values": [{"measurement": "LogP [a]", "result": "2.62^[a]"}]}, {"compound": "CC(O)(Cn1cncn1)c1cnc(Oc2ccc(Cl)cc2)cc1Cl", "note": "(single isomer, unassigned) [I.53]", "values": [{"measurement": "LogP [a]", "result": "2.53^[a]"}]}, {"compound": "CC(O)(Cn1cncn1)c1cnc(Oc2ccc(Cl)cc2)cc1Cl", "note": "(single isomer, unassigned) [I.54]", "values": [{"measurement": "LogP [a]", "result": "2.53^[a]"}]}, {"compound": "OC(Cn1cncn1)c1cnc(Oc2ccc(C(F)(F)F)cc2)cc1C(F)(F)F", "note": "(single isomer, unassigned) [I.72]", "values": [{"measurement": "LogP [a]", "result": "2.86^[a]"}]}, {"compound": "OC(Cn1cncn1)c1cnc(Oc2ccc(S(F)(F)(F)(F)F)cc2)cc1C(F)(F)F", "note": "(single isomer, unassigned) [I.83]", "values": [{"measurement": "LogP [a]", "result": "3.11^[a]"}]}, {"compound": "OC(Cn1cncn1)(c1ccc(Oc2ccc(Br)cc2)nc1C(F)(F)F)C1CC1", "note": "(single isomer, unassigned) [I.84]", "values": [{"measurement": "LogP [a]", "result": "3.41 ^[a]"}]}, {"compound": "OC(Cn1cncn1)c1cnc(Oc2ccc(S(F)(F)(F)(F)F)cc2)cc1C(F)(F)F", "note": "(single isomer, unassigned) [I.86]", "values": [{"measurement": "LogP [a]", "result": "3.11^[a]"}]}, {"compound": "OC(Cn1cncn1)c1cnc(Oc2ccc(C(F)(F)F)cc2)cc1C(F)(F)F", "note": "(single isomer, unassigned) [I.92]", "values": [{"measurement": "LogP [a]", "result": "2.86^[a]"}]}, {"compound": "OC(Cn1cncn1)(c1ccc(Oc2ccc(Br)cc2)nc1C(F)(F)F)C1CC1", "note": "(single isomer, unassigned) [I.99]", "values": [{"measurement": "LogP [a]", "result": "3.41^[a]"}]}, {"compound": "CC(O)(Cn1cncn1)c1ccc(Oc2ccc(Br)cc2)nc1C(F)(F)F", "note": "(single isomer, unassigned) [I.101]", "values": [{"measurement": "LogP [a]", "result": "2.94^[a]"}]}, {"compound": "CC(O)(Cn1cncn1)c1ccc(Oc2ccc(Br)cc2)nc1C(F)(F)F", "note": "(single isomer, unassigned) [I.102]", "values": [{"measurement": "LogP [a]", "result": "2.94^[a]"}]}, {"compound": "CC(O)(Cn1cncn1)c1cnc(Oc2ccccc2)cc1Cl", "note": "(centres unmarked) [I.05]", "values": [{"measurement": "LogP [a]", "result": 2.10}, {"measurement": "LogP [b]", "result": 2.06}]}, {"compound": "CC(O)(Cn1cncn1)c1ncc(Oc2ccccc2)cc1Cl", "note": "(centres unmarked) [I.06]", "values": [{"measurement": "LogP [a]", "result": 2.47}, {"measurement": "LogP [b]", "result": 2.43}]}, {"compound": "CC(O)(Cn1cncn1)c1ccc(Oc2ccccc2)nc1Cl", "note": "(centres unmarked) [I.07]", "values": [{"measurement": "LogP [a]", "result": 2.14}, {"measurement": "LogP [b]", "result": 2.09}]}, {"compound": "OC(Cn1cncn1)c1ccc(Oc2ccc(Cl)c(Cl)c2)nc1Cl", "note": "(centres unmarked) [I.10]", "values": [{"measurement": "LogP [a]", "result": "2.80^[a]"}]}, {"compound": "OC(Cn1cncn1)c1ccc(Oc2ccc(OC(F)(F)F)c(Cl)c2)nc1Cl", "note": "(centres unmarked) [I.11]", "values": [{"measurement": "LogP [a]", "result": "3.11^[a]"}]}, {"compound": "OC(Cn1cncn1)c1ccc(Oc2ccc(OC(F)(F)F)cc2)nc1Cl", "note": "(centres unmarked) [I.12]", "values": [{"measurement": "LogP [a]", "result": "2.73^[a]"}]}, {"compound": "OC(Cn1cncn1)c1ccc(Oc2ccccc2)nc1Cl", "note": "(centres unmarked) [I.13]", "values": [{"measurement": "LogP [a]", "result": "1.98^[a]"}]}, {"compound": "OC(Cn1cncn1)c1ccc(Oc2ccc(Cl)cc2)nc1Cl", "note": "(centres unmarked) [I.14]", "values": [{"measurement": "LogP [a]", "result": "2.42^[a]"}]}, {"compound": "Cc1cc(Cl)ccc1Oc1ccc(C(O)Cn2cncn2)c(Cl)n1", "note": "(centres unmarked) [I.15]", "values": [{"measurement": "LogP [a]", "result": "2.75^[a]"}]}, {"compound": "Cc1ccc(Oc2ccc(C(O)Cn3cncn3)c(Cl)n2)cc1Cl", "note": "(centres unmarked) [I.16]", "values": [{"measurement": "LogP [a]", "result": "2.73^[a]"}]}, {"compound": "OC(Cn1cncn1)c1ccc(Oc2ccc(F)cc2)nc1Cl", "note": "(centres unmarked) [I.17]", "values": [{"measurement": "LogP [a]", "result": "2.08^[a]"}]}, {"compound": "OC(Cn1cncn1)c1ccc(Oc2ccc(F)cc2F)nc1Cl", "note": "(centres unmarked) [I.18]", "values": [{"measurement": "LogP [a]", "result": "2.18^[a]"}]}, {"compound": "OC(Cn1cncn1)c1ccc(Oc2ccccc2F)nc1Cl", "note": "(centres unmarked) [I.19]", "values": [{"measurement": "LogP [a]", "result": "2.08^[a]"}]}, {"compound": "OC(Cn1cncn1)c1ccc(Oc2cc(F)c(F)c(F)c2)nc1Cl", "note": "(centres unmarked) [I.20]", "values": [{"measurement": "LogP [a]", "result": "1.65^[a]"}]}, {"compound": "OC(Cn1cncn1)c1cnc(Oc2ccccc2)cc1Cl", "note": "(centres unmarked) [I.21]", "values": [{"measurement": "LogP [a]", "result": "1.92^[a]"}]}, {"compound": "OC(Cn1cncn1)c1ncc(Oc2ccccc2)cc1Cl", "note": "(centres unmarked) [I.22]", "values": [{"measurement": "LogP [a]", "result": "2.01^[a]"}]}, {"compound": "OC(Cn1cncn1)c1ccc(Oc2ccc(Cl)cc2Cl)nc1Cl", "note": "(centres unmarked) [I.23]", "values": [{"measurement": "LogP [a]", "result": "2.75^[a]"}]}]}
